ChEMBL document CHEMBL5042486, “Discovery and Preclinical Characterization of BIIB091, a Reversible, Selective BTK Inhibitor for the Treatment of Multiple Sclerosis” (J Med Chem, 2022)
Values after ≈ are worked out from the molar mass of the structure shown.

Key:
[1] = Kinetic aqueous solubility of the compound in pH 3; assay type: physicochemical; conditions: read-out: Kinetic_solubility
[2] = Kinetic aqueous solubility of the compound in pH 6.8; assay type: physicochemical; conditions: read-out: Kinetic_solubility
[3] = Kinetic solubility of the compound at pH 1.5 by shake flask method; assay type: physicochemical; conditions: buffer, read-out: Kinetic_solubility
[4] = Lipophilicity, logD of the compound at pH 7.6 by shake flask assay; assay type: physicochemical; conditions: buffer
[5] = Protein binding in human plasma assessed as unbound fraction at 2 uM by rapid equilibrium dialysis method; assay type: ADME, cell-free
[6] = biological target: T1, Tyrosine-protein kinase BTK (Homo sapiens, UniProt Q06187); assay: Inhibition of human BTK using fluorescein-labeled polyGAT peptide as substrate incubated for 30 mins by FRET assay
[7] = biological target: Cytochrome P450 2C9 (Homo sapiens, UniProt P11712); assay: Inhibition of CYP2C9 (unknown origin); assay type: ADME
[8] = biological target: Cytochrome P450 3A4 (Homo sapiens, UniProt P08684); assay: Inhibition of CYP3A4 (unknown origin); assay type: ADME
[9] = Protein binding in rat plasma assessed as unbound fraction at 2 uM by rapid equilibrium dialysis method; assay type: ADME, cell-free
[10] = biological target: T1, Tyrosine-protein kinase BTK; assay: Inhibition of BTK phosphorylation in human whole blood assessed as reduction in BTK phosphorylation incubated for 30 mins; assay type: tissue-based
[11] = Dissociation constant, pKa of the compound; assay type: physicochemical
[12] = Volume of distribution at steady state in Beagle dog at 1 mg/kg, iv; assay type: ADME, organism-based, Canis lupus familiaris; conditions: in vivo, read-out: Vdss
[13] = Solubility of the compound in simulated gastric fluid at pH 1.6; assay type: physicochemical
[14] = Half life in Sprague-Dawley rat at 5 mg/kg, po; assay type: ADME, organism-based; conditions: in vivo
[15] = AUC in Sprague-Dawley rat at 5 mg/kg, po; assay type: ADME, organism-based; set-up: dose 5 mg/kg; conditions: in vivo
[16] = Solubility of the compound in FeSIF at pH 5.9; assay type: physicochemical
[17] = Clearance in Sprague-Dawley rat at 1 mg/kg, iv; assay type: ADME, organism-based; conditions: in vivo
[18] = Cmax in Sprague-Dawley rat at 5 mg/kg, po; assay type: ADME, organism-based; set-up: route oral, dose 5 mg/kg; conditions: in vivo
[19] = Clearance in Beagle dog assessed as hepatic blood flow at 1 mg/kg, iv; assay type: ADME, organism-based, Canis lupus familiaris, Liver; conditions: in vivo
[20] = AUC in Beagle dog at 5 mg/kg, po; assay type: ADME, organism-based, Canis lupus familiaris; set-up: dose 5 mg/kg; conditions: in vivo
[21] = Volume of distribution at steady state in Sprague-Dawley rat at 1 mg/kg, iv; assay type: ADME, organism-based; conditions: in vivo, read-out: Vdss
[22] = Oral bioavailability in Sprague-Dawley rat at 5 mg/kg; assay type: ADME, organism-based; conditions: in vivo
[23] = Clearance in Beagle dog at 1 mg/kg, iv; assay type: ADME, organism-based, Canis lupus familiaris; conditions: in vivo
[24] = Oral bioavailability in Beagle dog at 5 mg/kg; assay type: ADME, organism-based, Canis lupus familiaris; conditions: in vivo
[25] = Clearance in Sprague-Dawley rat assessed as hepatic blood flow at 1 mg/kg, iv; assay type: ADME, organism-based, Liver; conditions: in vivo
[26] = Kinetic solubility of the compound at pH 7.5 by shake flask method; assay type: physicochemical; conditions: buffer, read-out: Kinetic_solubility
[27] = Half life in Beagle dog at 5 mg/kg, po; assay type: ADME, organism-based, Canis lupus familiaris; conditions: in vivo
[28] = Solubility of the compound in FaSIF at pH 6.5; assay type: physicochemical
[29] = Cmax in Beagle dog at 5 mg/kg, po; assay type: ADME, organism-based, Canis lupus familiaris; set-up: route oral, dose 5 mg/kg; conditions: in vivo

Cytochrome P450 3A4, sequence (P08684 whole entry): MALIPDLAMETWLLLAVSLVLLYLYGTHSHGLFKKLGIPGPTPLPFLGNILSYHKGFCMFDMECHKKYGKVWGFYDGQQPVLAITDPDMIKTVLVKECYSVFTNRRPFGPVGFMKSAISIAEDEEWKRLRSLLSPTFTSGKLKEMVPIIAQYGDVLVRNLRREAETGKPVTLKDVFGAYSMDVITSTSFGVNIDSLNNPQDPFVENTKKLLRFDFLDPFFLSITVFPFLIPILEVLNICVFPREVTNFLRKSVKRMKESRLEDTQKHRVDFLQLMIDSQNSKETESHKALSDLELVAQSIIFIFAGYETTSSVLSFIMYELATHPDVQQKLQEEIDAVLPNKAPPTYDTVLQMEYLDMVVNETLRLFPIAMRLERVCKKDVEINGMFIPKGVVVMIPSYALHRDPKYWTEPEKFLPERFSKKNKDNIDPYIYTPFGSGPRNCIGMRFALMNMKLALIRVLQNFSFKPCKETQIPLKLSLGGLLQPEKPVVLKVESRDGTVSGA
T1 sequence (Q06187 whole entry): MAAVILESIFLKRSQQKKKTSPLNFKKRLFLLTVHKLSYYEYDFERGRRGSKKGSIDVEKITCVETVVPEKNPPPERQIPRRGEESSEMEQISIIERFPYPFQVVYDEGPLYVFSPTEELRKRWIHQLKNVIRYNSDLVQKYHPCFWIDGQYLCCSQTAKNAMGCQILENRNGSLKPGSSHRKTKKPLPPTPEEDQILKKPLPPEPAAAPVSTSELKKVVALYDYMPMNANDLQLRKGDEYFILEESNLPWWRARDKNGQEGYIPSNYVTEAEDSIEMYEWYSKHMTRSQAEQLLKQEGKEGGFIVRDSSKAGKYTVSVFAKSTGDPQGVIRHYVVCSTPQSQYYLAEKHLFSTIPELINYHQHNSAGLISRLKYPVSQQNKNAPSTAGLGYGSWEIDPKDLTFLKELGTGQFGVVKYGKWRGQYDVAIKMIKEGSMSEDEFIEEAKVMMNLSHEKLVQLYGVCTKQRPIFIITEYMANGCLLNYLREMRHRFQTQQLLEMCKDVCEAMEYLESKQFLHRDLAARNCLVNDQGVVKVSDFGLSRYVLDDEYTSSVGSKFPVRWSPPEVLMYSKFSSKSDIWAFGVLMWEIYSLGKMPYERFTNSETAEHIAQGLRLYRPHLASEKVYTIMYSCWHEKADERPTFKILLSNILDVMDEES
Cytochrome P450 2C9, sequence (P11712 whole entry): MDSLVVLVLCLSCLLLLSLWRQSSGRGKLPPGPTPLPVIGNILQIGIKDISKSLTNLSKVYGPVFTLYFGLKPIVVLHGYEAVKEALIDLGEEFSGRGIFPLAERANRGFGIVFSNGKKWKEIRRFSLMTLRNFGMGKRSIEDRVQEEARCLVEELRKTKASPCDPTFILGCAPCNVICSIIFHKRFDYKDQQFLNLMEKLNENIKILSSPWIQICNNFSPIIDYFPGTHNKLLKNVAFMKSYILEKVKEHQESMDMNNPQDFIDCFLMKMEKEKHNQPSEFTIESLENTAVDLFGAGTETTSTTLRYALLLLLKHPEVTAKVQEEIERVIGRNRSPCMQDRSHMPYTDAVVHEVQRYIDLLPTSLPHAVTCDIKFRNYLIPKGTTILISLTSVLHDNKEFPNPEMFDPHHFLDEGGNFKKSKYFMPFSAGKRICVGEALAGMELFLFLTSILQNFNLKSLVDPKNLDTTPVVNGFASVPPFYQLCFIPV

CC(C)OC1CN(C(=O)NCc2ccc(-c3ccnc(Nc4cnn(C)c4)n3)cc2C(F)(F)F)C1
solubility kinetic [1]: < 10 µg/mL | solubility kinetic [2]: < 10 µg/mL

Cn1cc(Nc2nccc(-c3ccc4c(c3)CCNC[C@H]4NC(=O)c3cn(C(C)(C)C)nn3)n2)cn1
solubility kinetic [3]: > 50 µg/mL | solubility kinetic [2]: > 50 µg/mL | logD [4]: 2.3 | fraction unbound at 2 µM [5]: 0.12

Cc1cc(-c2ccnc(Nc3cnn(C)c3)n2)c(F)cc1CNC(=O)N1CC(OC(C)C)C1
IC50 [6]: > 10000 nM

Cn1cc(Nc2nccc(-c3ccc4c(c3)CCCC[C@H]4NC(=O)c3nnc(C(C)(C)C)o3)n2)cn1
IC50 [7]: 4000 nM | solubility kinetic [3]: > 50 µg/mL | IC50 [8]: > 10000 nM | solubility kinetic [2]: < 20 µg/mL | fraction unbound at 2 µM [9]: 0.008 | logD [4]: 2.3 | fraction unbound at 2 µM [5]: 0.041

C=CC(=O)Nc1cccc(Oc2nc(Nc3ccc(N4CCN(C)CC4)cc3)nc3ccoc23)c1 [POSELTINIB]
IC50 [6]: 1 nM

Cc1c(NC(=O)c2cc3c(s2)CCCC3)cccc1-c1cn(C)c(=O)c(Nc2ccc(C3CN(C)CC(=O)N3C)cc2)n1 (stereo unspecified)
IC50 [6]: 1 nM | IC50 [10]: 150 nM

COCCN1CC[C@@H](NC(=O)c2cn(C(C)(C)C)nn2)c2ccc(-c3ccnc(Nc4cnn(C)c4)n3)cc2C1
solubility kinetic [3]: > 50 µg/mL | pKa [11]: 3.1 | solubility kinetic [2]: > 50 µg/mL | logD [4]: 2.9 | fraction unbound at 2 µM [5]: 0.1

CC(C)OC1CN(C(=O)N[C@@H]2CCCCc3cc(-c4ccnc(Nc5cnn(C)c5)n4)ccc32)C1
Vd [12]: 1.6 L/kg | solubility [13]: > 15000 µg/mL | half-life [14]: 1.3 h | AUC [15]: 6940 ng·h/mL | solubility [16]: 170 µg/mL (≈ 357 µM) | solubility kinetic [3]: > 30 µg/mL | clearance [17]: 6 mL/min/kg | Cmax [18]: 2460 ng/mL | QH [19]: 31% | AUC [20]: 14200 ng·h/mL | Vd [21]: 0.6 L/kg | bioavailability [22]: 69% | clearance [23]: 4 mL/min/kg | bioavailability [24]: 92% | QH [25]: 11% | logD [4]: 3.6 | solubility kinetic [26]: > 30 µg/mL | fraction unbound at 2 µM [5]: 0.07 | half-life [27]: 2.4 h | solubility [28]: 80 µg/mL (≈ 168 µM) | Cmax [29]: 3710 ng/mL

Cn1cc(Nc2nccc(-c3ccc4c(c3)CCCC[C@H]4NC(=O)c3nc(C(C)(C)C)no3)n2)cn1
IC50 [7]: 400 nM | solubility kinetic [3]: > 50 µg/mL | IC50 [8]: 2600 nM | solubility kinetic [2]: < 20 µg/mL | fraction unbound at 2 µM [9]: 0.009 | logD [4]: 2.8 | fraction unbound at 2 µM [5]: 0.008

Cn1cc(Nc2nccc(-c3ccc4c(c3)CCCC[C@H]4NC(=O)c3cn(C(C)(C)C)nn3)n2)cn1
IC50 [7]: 2000 nM | solubility kinetic [3]: > 50 µg/mL | IC50 [8]: 6400 nM | solubility kinetic [2]: < 20 µg/mL | fraction unbound at 2 µM [9]: 0.002 | logD [4]: 3.5 | fraction unbound at 2 µM [5]: 0.011

CC(C)OC1CN(C(=O)NC2CCCc3cc(-c4ccnc(Nc5cnn(C)c5)n4)ccc32)C1 (stereo unspecified)
solubility kinetic [1]: > 30 µg/mL | solubility kinetic [2]: > 30 µg/mL

Cc1cc(-c2ccnc(Nc3cnn(C)c3)n2)ccc1CNC(=O)N1CC(OC(C)C)C1
half-life [14]: 1.2 h | solubility kinetic [1]: > 30 µg/mL | solubility kinetic [3]: < 30 µg/mL | solubility kinetic [2]: < 30 µg/mL | logD [4]: 2.7 | solubility kinetic [26]: > 30 µg/mL | fraction unbound at 2 µM [5]: 0.06 | half-life [27]: 2.1 h

Cc1c(-c2c(F)cc(C(N)=O)c3[nH]c4c(c23)CC[C@H](C(C)(C)O)C4)cccc1-n1c(=O)c2cccc(F)c2n(C)c1=O [BMS-986142]
IC50 [6]: 1 nM | IC50 [10]: 110 nM

CN1CCc2cc(-c3ccnc(Nc4cnn(C)c4)n3)ccc2[C@H](NC(=O)c2cn(C(C)(C)C)nn2)C1
solubility kinetic [3]: > 50 µg/mL | logD [4]: 2.9 | fraction unbound at 2 µM [5]: 0.07

CC(C)OC1CN(C(=O)NCc2ccc(-c3ccnc(Nc4cnn(C)c4)n3)cc2Cl)C1
solubility kinetic [1]: < 30 µg/mL | solubility kinetic [2]: < 30 µg/mL

Cn1cc(Nc2nccc(-c3ccc4c(c3)CNCC[C@H]4NC(=O)c3cn(C(C)(C)C)nn3)n2)cn1
solubility kinetic [3]: > 50 µg/mL | solubility kinetic [2]: > 50 µg/mL | logD [4]: 2.9 | fraction unbound at 2 µM [5]: 0.18

Cc1c(CNC(=O)N2CC(OC(C)C)C2)ccc(-c2ccnc(Nc3cnn(C)c3)n2)c1F
solubility kinetic [1]: > 10 µg/mL | solubility kinetic [2]: > 10 µg/mL

CN1CC[C@@H](NC(=O)c2cn(C(C)(C)C)nn2)c2ccc(-c3ccnc(Nc4cnn(C)c4)n3)cc2C1
IC50 [6]: 0.8 nM | solubility kinetic [3]: > 50 µg/mL | pKa [11]: 4 | solubility kinetic [2]: > 50 µg/mL | logD [4]: 1 | fraction unbound at 2 µM [5]: 0.19
